The source of these data is patent publication US8461338B2, “(1R, 1′R)-atracurium salts separation process” (Chemagis Ltd., priority 2007, dated 2013).

The nature of series [1]: Stability of cisatracurium salt in different eluent mixtures (HPLC assay of isomer content over time). Format: physicochemical. As to conditions: for % of the 1R-cis,1′R-cis isomer in the eluent composition: room temperature. As for the experimental part: Table 6 illustrates how the amount of the 1R-cis,1′R-cis isomer changes at room temperature as a function of time in 3 different eluent mixtures. The (1R,1′R)-atracurium besylate isomer mixture was dissolved in the eluent and the resulting solutions were allowed to stand at room temperature for a period of 26 hours. After certain time intervals, as specified in Table 6, samples were withdrawn from each one of the 3 solutions and assayed by HPLC to determine the amount of the 1R-cis,1′R-cis isomer in the mixture.
The stability of the cisatracurium salt in the eluent mixture at 25° C. is presented in FIG. 1 whereby two plots are compared, that is, the plot describing the stability of the 1R-cis,1′R-cis isomer in the eluent mixture of 80:10:10 dichloromethane:DMSO:formic acid of the present invention (Column A in Table 6) vs. the plot of the dichloromethane:MeOH:benzenesulfonic acid eluent system, described in U.S. Pat. No. 5,556,978, example 2 (Column C in Table 6).

For series [2] the following is noted: cited from earlier work.

SMILES strings stand for the structures.

For the molecule `COc1ccc(C[C@@H]2c3cc(OC)c(OC)cc3CC[N@+]2(C)CCC(=O)OCCCCCOC(=O)CC[N@@+]2(C)CCc3cc(OC)c(OC)cc3[C@H]2Cc2ccc(OC)c(OC)c2)cc1OC` [1R-cis,1′R-cis isomer, (1R,1′R,2R,2′R)-2,2′-[1,5-pentanediylbis[oxy(3-oxo-3,1-propanediyl)]]bis[1-[(3,4-dimethoxyphenyl)methyl]-1,2,3,4-tetrahydro-6,7-dimethoxy-2-methyl-isoquinolinium dibenzenesulfonate], the “change of the content of the 1R-cis,1′R-cis isomer in the eluent mixture” value in series [1] (dichloromethane:DMSO:formic acid eluent mixture, after 26 hours) is recorded as “remains unchanged”. Moreover, the “decrease of the content of the 1R-cis,1′R-cis isomer in the eluent mixture” value in series [1] (dichloromethane:methanol:benzenesulfonic acid eluent (U.S. 5,556,978, example 2), after 26 hours at room temperature) is recorded as “more than 3%”. The “% of the 1R-cis,1′R-cis isomer in the eluent composition” value (from here on “% of the 1R-cis,1′R-cis isomer”) in series [1] (eluent A dichloromethane:DMSO:formic acid 80:10:10, 0 hours) was 55.1%; in series [1] (eluent A dichloromethane:DMSO:formic acid 80:10:10, 2 hours) it was 55.4%; in series [1] (eluent A dichloromethane:DMSO:formic acid 80:10:10, 11 hours), 55.2%; in series [1] (eluent A dichloromethane:DMSO:formic acid 80:10:10, 12 hours), 55.1%; in series [1] (eluent A dichloromethane:DMSO:formic acid 80:10:10, 24 hours), 55.3%; in series [1] (eluent A dichloromethane:DMSO:formic acid 80:10:10, 26 hours), 55.4%. Besides, the “% of the 1R-cis,1′R-cis isomer” value in series [1] (eluent B dichloromethane:DMSO:benzenesulfonic acid 90:10:0.006, 0 hours) turned out to be 55.3%; in series [1] (eluent B dichloromethane:DMSO:benzenesulfonic acid 90:10:0.006, 2 hours), 55.3%; in series [1] (eluent B dichloromethane:DMSO:benzenesulfonic acid 90:10:0.006, 11 hours), 55.3%; in series [1] (eluent B dichloromethane:DMSO:benzenesulfonic acid 90:10:0.006, 12 hours), 55.3%; in series [1] (eluent B dichloromethane:DMSO:benzenesulfonic acid 90:10:0.006, 24 hours), 55.3%; in series [1] (eluent B dichloromethane:DMSO:benzenesulfonic acid 90:10:0.006, 26 hours), 55.2%. In addition, the “% of the 1R-cis,1′R-cis isomer” value is 55.3% in series [1] (eluent C dichloromethane:methanol:benzenesulfonic acid 4000:500:0.5, 0 hours); 54.9% in series [1] (eluent C dichloromethane:methanol:benzenesulfonic acid 4000:500:0.5, 2 hours); 53.4% in series [1] (eluent C dichloromethane:methanol:benzenesulfonic acid 4000:500:0.5, 11 hours); 53.7% in series [1] (eluent C dichloromethane:methanol:benzenesulfonic acid 4000:500:0.5, 12 hours); 52.6% in series [1] (eluent C dichloromethane:methanol:benzenesulfonic acid 4000:500:0.5, 24 hours); 52.0% in series [1] (eluent C dichloromethane:methanol:benzenesulfonic acid 4000:500:0.5, 26 hours). Besides, the “rate of loss in potency” value in series [2] (at 25° C. (77° F.)) is reported as “approximately 5 % per month”. Moreover, in series [2] (under refrigeration (5° C.)), the “rate of loss of potency” value is “approximately 5 % per year”.
